According to article PMC8968063, “Key features of inhibitor binding to the human mitochondrial pyruvate carrier hetero-dimer” (Molecular Metabolism, 2022):

How the values were obtained:
[1] = target: T1, human MPC1L/MPC2 hetero-dimer (Homo sapiens, UniProt O95563+P0DKB6); assay: Inhibition of [14C]-pyruvate homo-exchange in MPC1L/MPC2 proteoliposomes; type: biochemical; details: for IC50 / Inhibition of pyruvate transport, residual activity compared to control: MPC1L/MPC2 proteoliposomes; for IC50: 50 μM [14C]-pyruvate homo-exchange, mean ± s.d., read-out: IC50 of pyruvate transport inhibition; for Inhibitory potency for human MPC1L/MPC2 compared to yeast Mpc1/Mpc3: human vs yeast protein, yeast values ref 15; for Inhibition of pyruvate transport, residual activity compared to control: compound 100 μM
T1 construct: eight-histidine tag (C, cleaved yes); TEV protease cleavage site (part stays on MPC2 after digestion) (C, cleaved yes); made in house; host or cells: Saccharomyces cerevisiae SHY15 (mpc triple deletion strain), purified from mitochondria
T1 sequence (P0DKB6 2-136): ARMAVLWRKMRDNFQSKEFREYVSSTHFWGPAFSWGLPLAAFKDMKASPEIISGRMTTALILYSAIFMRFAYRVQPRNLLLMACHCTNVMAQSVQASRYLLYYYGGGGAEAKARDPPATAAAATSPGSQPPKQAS
T1 sequence (O95563 2-127): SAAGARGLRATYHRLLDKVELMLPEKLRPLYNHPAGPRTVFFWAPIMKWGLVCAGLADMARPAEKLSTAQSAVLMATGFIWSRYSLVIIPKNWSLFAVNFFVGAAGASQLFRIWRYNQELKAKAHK
Description: Egg L-α-phosphatidylcholine 99% (w/v) (Avanti Polar Lipids, AL, USA) and TOCL were mixed in a 20:1 (w/w) ratio, dried under a stream of nitrogen and washed once with methanol before being dried again. Lipids were hydrated in 20 mM Tris–HCl, pH 8.0, 50 mM NaCl to a concentration of 12 mg/mL. Unlabeled pyruvate was added as a freshly made concentrated stock at a final concentration of 5 mM for internalisation. Lipids were solubilised with 1.2% (v/v) pentaethylene glycol monodecyl ether (Sigma) and freshly purified protein was added at a lipid-to-protein ratio of 250:1 (w/w). Samples were incubated on ice for 5 min, then liposomes were formed by the step-wise removal of pentaethylene glycol monodecyl ether by five additions at 20 min intervals of 60 mg Bio-Beads SM-2 (Bio-Rad, Watford, UK) with gentle mixing at 4 °C. A final addition of 480 mg Bio-Beads was incubated with the samples overnight. Proteoliposomes were first separated from the Bio-Beads by passage through empty spin columns (Bio-Rad, Watford, UK) and subsequently pelleted at 120,000×g for 60 min. The proteoliposomes were resuspended with a thin needle in 150 μL of their supernatant after the rest of the supernatant was removed.
The time course of pyruvate homo-exchange was measured at room temperature. The transport was initiated by diluting proteoliposomes 200-fold into external buffer, 20 mM MES, pH 6.4, 50 mM NaCl, containing 50 μM [^14C]-pyruvate (500,000 dpm, Perkin Elmer, MA, USA). The reaction (0–30 s) was terminated by rapid dilution into 8 volumes of ice-cold internal buffer (20 mM Tris–HCl, pH 8.0, 50 mM NaCl), followed by rapid filtration through cellulose nitrate 0.45 μm filters (Millipore, Gillingham, UK) and washing with an additional 8 volumes of buffer. The filters were dissolved in Ultima Gold scintillation liquid (Perkin Elmer, MA, USA) and the radioactivity was counted with a Perkin Elmer Tri-Carb 2800 RT liquid scintillation counter. […] The data analysis was performed with non-linear regression fittings using GraphPad Prism 7.0d ([Inhibitor] vs response, variable slope). The specific uptake rates were calculated based on the amount of protein used in reconstitutions, as estimated from bicinchoninic acid assay. The biological repeats represent independent proteoliposome preparations using protein from independent purifications.

[2] = target: T2, human MPC1L/MPC2 complex (Homo sapiens, UniProt O95563+P0DKB6); assay: CPM thermostability shift assay, purified MPC1L/MPC2; type: binding; details: for ΔTm at 100 µM: read-out: ∆Tm, CPM assay (thermal shift compared to no-ligand control); for Tm, CPM assay: unliganded 51.3 ± 0.2, mean ± s.d., 3 biological repeats
T2 construct: eight-histidine tag (C, cleaved yes); TEV protease cleavage site (part stays on MPC2 after digestion) (C, cleaved yes); made in house; host or cells: Saccharomyces cerevisiae SHY15 (mpc triple deletion strain), purified from mitochondria
T2 sequence (P0DKB6 2-136): T1 sequence (P0DKB6 2-136)
T2 sequence (O95563 2-127): T1 sequence (O95563 2-127)
Description: (§1) The assessment of ligand binding was performed via shifts in protein thermostability upon binding using thermal denaturation on a rotary quantitative PCR (qPCR) instrument (Qiagen Rotor-Gene Q 2plex HRM, Venlo, Netherlands), as previously described. In this method, cysteine residues, buried within the protein structure, become solvent-exposed during denaturation in a temperature ramp and then react with 7-diethylamino-3-(4-maleimidophenyl)-4-methylcoumarin (CPM) to form fluorescent-adducts. Briefly, a CPM working solution was prepared by diluting the CPM stock (5 mg/mL in dimethyl sulfoxide) 50-fold into assay buffer (20 mM Tris–HCl, pH 7.4, 150 mM NaCl, 0.1% (w/v) LMNG, 0.1 mg/mL TOCL) and incubated for 10 min at room temperature. In each analysis, performed in duplicates or triplicates, 3 μg of purified MPC was diluted into 45 μL of assay buffer containing the desired concentration of the inhibitor then incubated for 10 min on ice. Next, 5 μL of the CPM working solution were added. Samples were incubated on ice for an additional 10 min then subjected to a temperature ramp of 5.6 °C/min. The fluorescence increase was monitored with the HRM channel of the instrument (excitation at 440–480 nm, emission at 505–515 nm). Unfolding profiles were analysed with the Rotor-Gene Q software 2.3, and the peaks of their derivatives were used to determine the apparent melting temperature.

[3] = target: T2, human MPC1L/MPC2 complex; assay: nano-DSF thermostability shift assay, purified MPC1L/MPC2; type: binding; details: inhibitor 100 μM; for Tm, nano-DSF: unliganded 51.9 ± 0.1, mean ± s.d., 2 biological repeats
Description: Ligand binding was also assessed using dye-free nano differential scanning fluorimetry (nano-DSF) to monitor fluorescence changes due to altered environments of tryptophan and tyrosine residues during unfolding. Protein samples in buffer containing 20 mM Tris–HCl pH 7.4, 150 mM NaCl, 0.1% (w/v) LMNG, 0.1 mg/mL TOCL, in the presence or absence of the indicated concentrations of small molecule inhibitors, were loaded into capillary tubes, and a temperature ramp of 5 °C/min was applied. The intrinsic fluorescence was measured using the NanoTemper Prometheus NT.48 (NanoTemper, München, Germany).

[4] = target: mammalian MPCs; details: isolated mitochondria; cited from earlier work
[5] = target: T3, MPC2 protomer (Homo sapiens, UniProt O95563); assay: CPM thermostability shift assay, individually purified MPC2; type: binding; details: 100 μM inhibitor
T3 construct: Factor Xa or TEV cleavage site followed by eight-histidine tag (C); made in house
T3 sequence (O95563 1-127): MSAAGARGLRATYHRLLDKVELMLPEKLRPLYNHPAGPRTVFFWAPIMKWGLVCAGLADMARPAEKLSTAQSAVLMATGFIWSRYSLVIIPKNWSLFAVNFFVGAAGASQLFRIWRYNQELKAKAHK
Description: as §1

[6] = target: T4, MPC1/MPC2 hetero-dimer (Homo sapiens, UniProt O95563+Q9Y5U8); assay: CPM thermostability shift assay, MPC1/MPC2; type: binding; details: 100 μM inhibitor
T4 construct: eight-histidine tag (C, cleaved yes); Factor Xa cleavage site (C, cleaved yes); made in house; host or cells: Saccharomyces cerevisiae SHY15 (mpc triple deletion strain), purified from mitochondria
T4 sequence (Q9Y5U8 2-109 limits assumed): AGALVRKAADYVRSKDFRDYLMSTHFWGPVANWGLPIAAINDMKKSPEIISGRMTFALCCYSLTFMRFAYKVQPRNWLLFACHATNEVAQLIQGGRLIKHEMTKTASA
T4 sequence (O95563 2-127 limits assumed): T1 sequence (O95563 2-127)
Description: as §1

[7] = target: T5, recombinant human MPC1L/MPC2 (Homo sapiens, UniProt O95563+P0DKB6); assay: Electrospray mass spectrometry of MPC1L/MPC2 after reaction with inhibitors or sulfhydryl modifiers; details: for Mass difference (observed vs calculated), MPC1L (2–136) / Mass difference (observed vs calculated), MPC1L (5–136) / Mass difference (observed vs calculated), MPC2 (2–137): MPC1L/MPC2 after reaction with compound; for Covalent modification of MPC protomers (molecular mass change): folded MPC1L/MPC2 incubated with compound, ESI-MS
T5 construct: MPC1L (2–136); MPC2 (2–137); eight-histidine tag (C, cleaved yes); TEV protease cleavage site (part stays on MPC2 after digestion) (C, cleaved yes); made in house; host or cells: Saccharomyces cerevisiae SHY15 (mpc triple deletion strain), purified from mitochondria
T5 sequence (P0DKB6 2-136 limits assumed): T1 sequence (P0DKB6 2-136)
T5 sequence (O95563 2-127 limits assumed): T1 sequence (O95563 2-127)
Description: Different MPC inhibitors (Table1) or sulfhydryl reagents were first incubated with MPC1L/MPC2 in a folded state, then the protein molecular masses were measured by electrospray mass spectrometry. The MPC subunits (10 μg) were resolved by reverse-phase HPLC on a PLRP-S column (1.0 mm i.d. X 75 mm; VARIAN) using a gradient of 2-propanol in a solvent system compatible with the recovery of membrane proteins (Carroll et al., 2009). The eluate (50 μL/min) was introduced into a QTRAP4000 (SCIEX) mass spectrometer operating in positive ion single MS mode. The instrument was scanned from 700 m/z to 2300 m/z after calibration with ions from a mixture of 1.0 μM of myoglobin and 1.5 μM trypsinogen. Molecular masses were obtained by reconstruction of the spectra of multiply charged ions using PeakView (SCIEX).

O=C(O)c1nn(Cc2ccc(Cl)cc2Cl)c2ccccc12 [Lonidamine, lonidamine]
IC50 [1]: 4.6 ± 1.3 µM | Inhibitory potency for human MPC1L/MPC2 compared to yeast Mpc1/Mpc3 [1]: much higher potencies | Thermal shift in the CPM assay ([2]; compound 1 mM): negative thermal shift | ∆Tm, CPM assay (thermal shift compared to no-ligand control) ([2]; inhibitor 100 μM): No thermal shifts | ΔTm at 100 µM ([2]; inhibitor 100 μM): -0.2 ± 0.5 °C | Tm, CPM assay ([2]; inhibitor 100 μM): 51.1 ± 0.3 °C | ∆Tm, nano-DSF [3]: 0.6 ± 0.3 °C | ∆Tm, nano-DSF ([3]; listed as lonidamine): No thermal shifts | Tm, nano-DSF [3]: 52.5 ± 0.2 °C | Ki [4]: 2.5 µM

CCCOc1ccccc1-c1nc2nn[nH]c2c(=O)[nH]1 [Zaprinast]
Thermostability shift of MPC2 alone [5]: neither CHC nor zaprinast showed any shift | IC50 [1]: 0.321 ± 0.042 µM | Inhibition of pyruvate transport, residual activity compared to control [1]: completely inhibited | Inhibitory potency for human MPC1L/MPC2 compared to yeast Mpc1/Mpc3 [1]: much higher potencies | Thermostability shift of MPC1/MPC2 [6]: strong shifts | ΔTm at 100 µM ([2]; inhibitor 100 μM): 7.5 ± 0.6 °C | Tm, CPM assay ([2]; inhibitor 100 μM): 58.8 ± 0.4 °C | Mass difference (observed vs calculated), MPC1L (2–136) [7]: 0.4 Da | Mass difference (observed vs calculated), MPC1L (5–136) [7]: 0.3 Da | Mass difference (observed vs calculated), MPC2 (2–137) [7]: 1.5 Da | Covalent modification of MPC protomers (molecular mass change) [7]: no molecular mass differences | ∆Tm, nano-DSF [3]: 6.3 ± 0.4 °C | Tm, nano-DSF [3]: 58.2 ± 0.3 °C

N#CC(=Cc1ccc(O)cc1)C(=O)O [CHC, α-cyano-4-hydroxy-cinnamate]
Thermostability shift of MPC2 alone [5]: neither CHC nor zaprinast showed any shift | Inhibition of pyruvate transport, residual activity compared to control [1]: completely inhibited | Thermostability shift of MPC1/MPC2 [6]: strong shifts | ΔTm at 100 µM ([2]; inhibitor 100 μM): 8.3 ± 0.6 °C | Tm, CPM assay ([2]; inhibitor 100 μM): 59.6 ± 0.4 °C | ∆Tm, nano-DSF [3]: 7.0 ± 0.5 °C | Tm, nano-DSF [3]: 58.9 ± 0.4 °C

N#CC(=Cc1cn(-c2ccccc2)c2ccccc12)C(=O)O [UK5099, α-cyano-β-(1-phenylindol-3-yl)-acrylate]
Inhibition of pyruvate transport, residual activity compared to control [1]: completely inhibited | ΔTm at 100 µM ([2]; inhibitor 100 μM): 11.2 ± 1.1 °C | Tm, CPM assay ([2]; inhibitor 100 μM): 62.5 ± 0.9 °C | Mass difference (observed vs calculated), MPC1L (2–136) [7]: 0.6 Da | Mass difference (observed vs calculated), MPC1L (5–136) [7]: 0.6 Da | Mass difference (observed vs calculated), MPC2 (2–137) [7]: 1.7 Da | Covalent modification of MPC protomers (molecular mass change) [7]: no molecular mass differences | ∆Tm, nano-DSF [3]: 9.2 ± 0.7 °C | Tm, nano-DSF [3]: 61.1 ± 0.6 °C | Ki [4]: ~0.05 µM
